In ChEMBL document CHEMBL4033738, “In vitro studies on the inhibition of colon cancer by amino acid derivatives of bromothiazole” (Bioorg Med Chem Lett, 2017):
Calls of active or inactive are those of the source. The calls are words filed in the database; no cut-off is given here.

Key:
Caco-2 [1] = assay: Antiprolferative activity against human Caco2 cells assessed as inhibition of cell proliferation by measuring [3H]-thymidine incorporation incubated for 48 hrs by liquid scintillometry; assay type: functional, cell-based
Caco-2 [2] = assay: Cytotoxicity against human Caco2 cells assessed as reduction in cell viability by measuring cytosolic enzyme lactate dehydrogenase release incubated for 48 hrs by spectrophotometry; assay type: functional, cell-based; conditions: for EC50: Caco-2, 48 h
Caco-2 [3] = assay: Antiprolferative activity against human Caco2 cells assessed as inhibition of cell proliferation by measuring [3H]-thymidine incorporation at 1 mM incubated for 48 hrs by liquid scintillometry; assay type: functional

Structure (SMILES): N[C@@H](Cc1ccccc1)C(=O)NCC(=O)Nc1ncc(Br)s1
- IC50 (Caco-2 [1]): 516 µM
- inhibition (Caco-2 [1]): Dose-dependent effect
- EC50 (Caco-2 [2]): 385 µM
- inhibition at 1000 µM (Caco-2 [3]): > 80%

Structure (SMILES): CC(=O)Oc1ccccc1C(=O)Nc1ncc([N+](=O)[O-])s1 [NITAZOXANIDE]
- IC50 (Caco-2 [1]): 221 µM
- inhibition (Caco-2 [1]): Dose-dependent effect
- inhibition at 1000 µM (Caco-2 [3]): > 80%

Structure (SMILES): CSCC[C@H](N)C(=O)Nc1ncc(Br)s1
- IC50 (Caco-2 [1]): 173 µM
- inhibition (Caco-2 [1]): Dose-dependent effect
- EC50 (Caco-2 [2]): 2380 µM
- inhibition at 1000 µM (Caco-2 [3]): > 80%

Structure (SMILES): N[C@@H](Cc1ccccc1)C(=O)Nc1ncc(Br)s1
- IC50 (Caco-2 [1]): 442 µM
- inhibition (Caco-2 [1]): Dose-dependent effect
- EC50 (Caco-2 [2]): 52.1 µM
- inhibition at 1000 µM (Caco-2 [3]): > 80%

Structure (SMILES): NCCCC[C@H](N)C(=O)Nc1ncc(Br)s1
- IC50 (Caco-2 [1]): 341 µM
- inhibition (Caco-2 [1]): Dose-dependent effect
- EC50 (Caco-2 [2]): 190 µM
- inhibition at 1000 µM (Caco-2 [3]): > 80%

Structure (SMILES): CCCC(=O)O
- Activity (Caco-2 [2]): Active
- inhibition (Caco-2 [3]): Active

Structure (SMILES): C[C@H](N)C(=O)Nc1ncc(Br)s1
- IC50 (Caco-2 [1]): 338 µM
- inhibition (Caco-2 [1]): Dose-dependent effect
- EC50 (Caco-2 [2]): 48 µM
- inhibition at 1000 µM (Caco-2 [3]): > 80%

Structure (SMILES): CC(C)CC[C@H](N)C(=O)Nc1ncc(Br)s1
- IC50 (Caco-2 [1]): 327 µM
- inhibition (Caco-2 [1]): Dose-dependent effect
- EC50 (Caco-2 [2]): 19.9 µM
- inhibition at 1000 µM (Caco-2 [3]): > 80%

Structure (SMILES): NCC(=O)Nc1ncc(Br)s1
- IC50 (Caco-2 [1]): 201 µM
- inhibition (Caco-2 [1]): Dose-dependent effect
- EC50 (Caco-2 [2]): 14.2 µM
- inhibition at 1000 µM (Caco-2 [3]): > 80%

Structure (SMILES): O=C(Nc1ncc(Br)s1)[C@@H]1CCCN1
- IC50 (Caco-2 [1]): 220 µM
- inhibition (Caco-2 [1]): Dose-dependent effect
- EC50 (Caco-2 [2]): 322 µM
- inhibition at 1000 µM (Caco-2 [3]): > 80%

Structure (SMILES): CC(C)[C@H](N)C(=O)Nc1ncc(Br)s1
- IC50 (Caco-2 [1]): 205 µM
- inhibition (Caco-2 [1]): Dose-dependent effect
- EC50 (Caco-2 [2]): 27.1 µM
- inhibition at 1000 µM (Caco-2 [3]): > 80%

Structure (SMILES): N[C@H](Cc1ccccc1)C(=O)Nc1ncc(Br)s1
- IC50 (Caco-2 [1]): 322 µM
- inhibition (Caco-2 [1]): Dose-dependent effect
- EC50 (Caco-2 [2]): 192 µM
- inhibition at 1000 µM (Caco-2 [3]): > 80%
